Test results published in ChEMBL document CHEMBL5465560, “Selectivity Literature for EUbOPEN Chemogenomic Library” (2024).

Assays:
[1] = molecular target: Ribosomal protein S6 kinase alpha-6 (Homo sapiens, UniProt Q9UK32); assay: Selectivity interaction (KinomeScan (DiscoverX)) EUB0000229b RPS6KA6; details: at 10 µM
[2] = molecular target: T1, Receptor-interacting serine/threonine-protein kinase 1 (Homo sapiens) (UniProt Q13546); assay: Selectivity interaction (KinomeScan (DiscoverX)) EUB0001079a RIPK1; details: at 1 µM
T1 sequence (whole entry): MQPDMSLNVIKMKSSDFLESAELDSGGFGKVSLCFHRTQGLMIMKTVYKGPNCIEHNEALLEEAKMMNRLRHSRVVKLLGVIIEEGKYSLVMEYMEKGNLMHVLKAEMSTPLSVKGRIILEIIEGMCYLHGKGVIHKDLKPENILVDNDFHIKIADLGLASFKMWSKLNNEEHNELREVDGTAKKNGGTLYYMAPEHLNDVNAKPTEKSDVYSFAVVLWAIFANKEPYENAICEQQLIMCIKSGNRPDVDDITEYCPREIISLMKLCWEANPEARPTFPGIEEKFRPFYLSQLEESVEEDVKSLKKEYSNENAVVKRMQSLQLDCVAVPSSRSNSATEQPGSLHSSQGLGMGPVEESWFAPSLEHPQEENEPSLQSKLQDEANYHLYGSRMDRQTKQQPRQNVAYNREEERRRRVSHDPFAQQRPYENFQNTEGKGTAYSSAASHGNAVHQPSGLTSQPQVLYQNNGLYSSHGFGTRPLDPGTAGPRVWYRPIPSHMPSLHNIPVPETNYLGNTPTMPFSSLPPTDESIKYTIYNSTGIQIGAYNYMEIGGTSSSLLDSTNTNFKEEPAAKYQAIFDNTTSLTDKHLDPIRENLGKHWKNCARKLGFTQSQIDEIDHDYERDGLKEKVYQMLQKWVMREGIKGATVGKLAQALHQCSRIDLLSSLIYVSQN

[3] = molecular target: T2, Phosphatidylinositol 4,5-bisphosphate 3-kinase catalytic subunit delta isoform (Homo sapiens) (UniProt O00329); assay: Selectivity interaction (KinomeScan (DiscoverX)) EUB0000595a PIK3CD; details: at 10 µM
T2 sequence (whole entry): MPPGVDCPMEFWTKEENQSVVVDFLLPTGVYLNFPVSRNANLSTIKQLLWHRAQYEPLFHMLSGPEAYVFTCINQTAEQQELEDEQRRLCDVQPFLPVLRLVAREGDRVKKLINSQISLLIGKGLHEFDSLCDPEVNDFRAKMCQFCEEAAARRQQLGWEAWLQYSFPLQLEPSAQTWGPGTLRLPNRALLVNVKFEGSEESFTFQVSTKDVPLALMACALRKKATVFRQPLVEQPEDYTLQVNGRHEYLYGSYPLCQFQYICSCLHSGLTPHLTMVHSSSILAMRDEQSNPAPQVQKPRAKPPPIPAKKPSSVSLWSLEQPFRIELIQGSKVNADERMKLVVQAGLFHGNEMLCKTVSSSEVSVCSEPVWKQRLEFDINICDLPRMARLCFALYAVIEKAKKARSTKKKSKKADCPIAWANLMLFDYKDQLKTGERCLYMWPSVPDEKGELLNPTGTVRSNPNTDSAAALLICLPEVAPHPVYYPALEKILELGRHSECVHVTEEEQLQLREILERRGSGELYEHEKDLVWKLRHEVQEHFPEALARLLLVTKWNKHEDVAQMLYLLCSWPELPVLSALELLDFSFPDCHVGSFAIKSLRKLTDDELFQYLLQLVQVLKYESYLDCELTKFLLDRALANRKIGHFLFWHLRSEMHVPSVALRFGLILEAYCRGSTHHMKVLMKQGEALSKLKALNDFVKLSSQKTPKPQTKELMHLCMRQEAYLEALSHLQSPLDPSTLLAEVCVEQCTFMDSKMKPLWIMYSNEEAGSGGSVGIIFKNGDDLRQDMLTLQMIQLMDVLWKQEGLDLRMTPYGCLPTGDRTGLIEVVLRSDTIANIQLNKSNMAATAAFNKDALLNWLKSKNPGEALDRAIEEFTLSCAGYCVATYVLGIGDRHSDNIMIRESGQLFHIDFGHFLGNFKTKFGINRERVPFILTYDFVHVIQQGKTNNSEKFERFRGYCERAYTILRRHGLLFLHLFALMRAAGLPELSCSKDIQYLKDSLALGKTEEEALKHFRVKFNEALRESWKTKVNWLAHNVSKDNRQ

[4] = molecular target: Serine/threonine-protein kinase Nek4 (Homo sapiens) (UniProt P51957); assay: Selectivity interaction (KinomeScan (DiscoverX)) EUB0000092b NEK4; details: at 10 µM
[5] = molecular target: Ribosomal protein S6 kinase alpha-1 (Homo sapiens, UniProt Q15418); assay: Selectivity interaction (KinomeScan (DiscoverX)) EUB0000618a RPS6KA1; details: at 10 µM
[6] = molecular target: Death-associated protein kinase 1 (Homo sapiens, UniProt P53355); details: at 10 µM
[7] = molecular target: Mitogen-activated protein kinase 9 (Homo sapiens, UniProt P45984); assay: Selectivity interaction (ActivX KiNativ screen (ex vivo kinase selectivity in human PBMCs)) EUB0001619a MAPK9; type: cell-based; details: PBMC, at 1 µM
Chain of Mitogen-activated protein kinase 9 (P45984 whole entry, looked up): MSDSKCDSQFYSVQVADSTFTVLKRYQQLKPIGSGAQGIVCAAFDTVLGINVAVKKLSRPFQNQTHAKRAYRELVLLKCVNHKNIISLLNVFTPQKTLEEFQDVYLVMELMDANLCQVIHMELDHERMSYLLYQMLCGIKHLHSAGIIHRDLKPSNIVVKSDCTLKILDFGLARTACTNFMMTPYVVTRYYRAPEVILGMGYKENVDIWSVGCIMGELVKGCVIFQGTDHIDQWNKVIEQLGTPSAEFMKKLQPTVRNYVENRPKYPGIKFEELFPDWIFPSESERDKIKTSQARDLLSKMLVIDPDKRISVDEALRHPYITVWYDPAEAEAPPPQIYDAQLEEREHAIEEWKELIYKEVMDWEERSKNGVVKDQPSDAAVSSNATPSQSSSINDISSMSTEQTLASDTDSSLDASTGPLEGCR

Chain of Serine/threonine-protein kinase Nek4 (Homo sapiens) (P51957 whole entry, looked up): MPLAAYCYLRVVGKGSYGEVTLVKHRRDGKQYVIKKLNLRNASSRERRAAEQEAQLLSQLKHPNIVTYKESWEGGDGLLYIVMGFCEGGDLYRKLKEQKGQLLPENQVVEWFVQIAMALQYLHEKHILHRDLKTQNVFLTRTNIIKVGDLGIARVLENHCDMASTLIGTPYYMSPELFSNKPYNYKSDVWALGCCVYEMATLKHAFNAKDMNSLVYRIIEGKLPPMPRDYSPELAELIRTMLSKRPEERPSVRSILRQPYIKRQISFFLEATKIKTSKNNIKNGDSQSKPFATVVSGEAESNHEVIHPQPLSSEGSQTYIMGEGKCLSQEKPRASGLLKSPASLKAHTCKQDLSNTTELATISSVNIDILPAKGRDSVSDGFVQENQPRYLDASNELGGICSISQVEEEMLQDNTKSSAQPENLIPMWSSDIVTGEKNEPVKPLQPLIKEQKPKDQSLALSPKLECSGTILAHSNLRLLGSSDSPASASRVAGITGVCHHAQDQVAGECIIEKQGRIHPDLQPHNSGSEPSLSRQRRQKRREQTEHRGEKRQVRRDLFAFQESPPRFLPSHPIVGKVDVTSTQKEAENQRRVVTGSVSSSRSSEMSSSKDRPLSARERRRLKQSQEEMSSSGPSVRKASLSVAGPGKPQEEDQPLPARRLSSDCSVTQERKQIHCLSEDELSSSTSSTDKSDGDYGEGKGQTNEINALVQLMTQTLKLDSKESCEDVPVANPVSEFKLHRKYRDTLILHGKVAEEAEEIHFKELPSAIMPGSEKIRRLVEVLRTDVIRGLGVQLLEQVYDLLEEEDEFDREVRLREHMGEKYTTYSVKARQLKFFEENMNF
Chain of Ribosomal protein S6 kinase alpha-1 (Q15418 whole entry): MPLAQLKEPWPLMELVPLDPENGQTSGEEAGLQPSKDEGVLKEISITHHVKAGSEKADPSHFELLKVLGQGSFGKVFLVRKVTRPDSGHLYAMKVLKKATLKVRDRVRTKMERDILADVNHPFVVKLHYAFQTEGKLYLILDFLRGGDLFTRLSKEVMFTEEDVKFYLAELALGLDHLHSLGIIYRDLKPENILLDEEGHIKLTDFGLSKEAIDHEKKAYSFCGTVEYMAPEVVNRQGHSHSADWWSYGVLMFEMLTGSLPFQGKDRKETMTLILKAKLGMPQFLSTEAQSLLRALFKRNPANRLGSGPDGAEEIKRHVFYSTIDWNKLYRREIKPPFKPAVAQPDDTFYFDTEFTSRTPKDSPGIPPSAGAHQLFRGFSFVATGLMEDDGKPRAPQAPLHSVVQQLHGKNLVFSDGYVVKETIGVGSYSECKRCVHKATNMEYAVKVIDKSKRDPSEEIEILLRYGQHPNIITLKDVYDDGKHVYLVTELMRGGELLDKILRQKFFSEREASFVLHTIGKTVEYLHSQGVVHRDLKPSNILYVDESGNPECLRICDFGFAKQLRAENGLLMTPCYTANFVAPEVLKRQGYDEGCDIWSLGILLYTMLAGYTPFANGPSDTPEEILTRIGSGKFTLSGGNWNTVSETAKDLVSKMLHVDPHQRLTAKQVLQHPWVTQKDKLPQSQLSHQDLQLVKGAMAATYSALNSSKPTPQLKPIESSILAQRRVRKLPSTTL
Chain of Ribosomal protein S6 kinase alpha-6 (Q9UK32 whole entry): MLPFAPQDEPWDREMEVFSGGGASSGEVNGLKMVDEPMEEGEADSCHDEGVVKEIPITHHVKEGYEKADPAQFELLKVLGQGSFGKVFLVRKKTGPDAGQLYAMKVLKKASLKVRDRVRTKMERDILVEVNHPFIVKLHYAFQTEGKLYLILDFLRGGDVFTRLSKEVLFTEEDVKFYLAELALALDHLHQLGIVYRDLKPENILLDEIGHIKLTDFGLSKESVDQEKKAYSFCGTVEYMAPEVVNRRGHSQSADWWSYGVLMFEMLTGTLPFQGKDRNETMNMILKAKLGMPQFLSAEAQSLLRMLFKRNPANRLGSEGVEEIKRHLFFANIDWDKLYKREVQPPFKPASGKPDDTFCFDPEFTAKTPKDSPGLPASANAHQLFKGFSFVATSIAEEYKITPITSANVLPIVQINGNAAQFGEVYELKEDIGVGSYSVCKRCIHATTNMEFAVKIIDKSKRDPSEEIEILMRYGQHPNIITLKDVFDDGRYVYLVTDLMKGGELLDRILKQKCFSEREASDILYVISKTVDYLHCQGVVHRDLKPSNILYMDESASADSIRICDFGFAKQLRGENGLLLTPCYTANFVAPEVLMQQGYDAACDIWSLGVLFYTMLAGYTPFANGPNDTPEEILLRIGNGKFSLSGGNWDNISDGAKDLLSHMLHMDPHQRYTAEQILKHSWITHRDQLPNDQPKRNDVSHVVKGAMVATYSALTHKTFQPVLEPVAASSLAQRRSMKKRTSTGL
Chain of Death-associated protein kinase 1 (P53355 whole entry, looked up): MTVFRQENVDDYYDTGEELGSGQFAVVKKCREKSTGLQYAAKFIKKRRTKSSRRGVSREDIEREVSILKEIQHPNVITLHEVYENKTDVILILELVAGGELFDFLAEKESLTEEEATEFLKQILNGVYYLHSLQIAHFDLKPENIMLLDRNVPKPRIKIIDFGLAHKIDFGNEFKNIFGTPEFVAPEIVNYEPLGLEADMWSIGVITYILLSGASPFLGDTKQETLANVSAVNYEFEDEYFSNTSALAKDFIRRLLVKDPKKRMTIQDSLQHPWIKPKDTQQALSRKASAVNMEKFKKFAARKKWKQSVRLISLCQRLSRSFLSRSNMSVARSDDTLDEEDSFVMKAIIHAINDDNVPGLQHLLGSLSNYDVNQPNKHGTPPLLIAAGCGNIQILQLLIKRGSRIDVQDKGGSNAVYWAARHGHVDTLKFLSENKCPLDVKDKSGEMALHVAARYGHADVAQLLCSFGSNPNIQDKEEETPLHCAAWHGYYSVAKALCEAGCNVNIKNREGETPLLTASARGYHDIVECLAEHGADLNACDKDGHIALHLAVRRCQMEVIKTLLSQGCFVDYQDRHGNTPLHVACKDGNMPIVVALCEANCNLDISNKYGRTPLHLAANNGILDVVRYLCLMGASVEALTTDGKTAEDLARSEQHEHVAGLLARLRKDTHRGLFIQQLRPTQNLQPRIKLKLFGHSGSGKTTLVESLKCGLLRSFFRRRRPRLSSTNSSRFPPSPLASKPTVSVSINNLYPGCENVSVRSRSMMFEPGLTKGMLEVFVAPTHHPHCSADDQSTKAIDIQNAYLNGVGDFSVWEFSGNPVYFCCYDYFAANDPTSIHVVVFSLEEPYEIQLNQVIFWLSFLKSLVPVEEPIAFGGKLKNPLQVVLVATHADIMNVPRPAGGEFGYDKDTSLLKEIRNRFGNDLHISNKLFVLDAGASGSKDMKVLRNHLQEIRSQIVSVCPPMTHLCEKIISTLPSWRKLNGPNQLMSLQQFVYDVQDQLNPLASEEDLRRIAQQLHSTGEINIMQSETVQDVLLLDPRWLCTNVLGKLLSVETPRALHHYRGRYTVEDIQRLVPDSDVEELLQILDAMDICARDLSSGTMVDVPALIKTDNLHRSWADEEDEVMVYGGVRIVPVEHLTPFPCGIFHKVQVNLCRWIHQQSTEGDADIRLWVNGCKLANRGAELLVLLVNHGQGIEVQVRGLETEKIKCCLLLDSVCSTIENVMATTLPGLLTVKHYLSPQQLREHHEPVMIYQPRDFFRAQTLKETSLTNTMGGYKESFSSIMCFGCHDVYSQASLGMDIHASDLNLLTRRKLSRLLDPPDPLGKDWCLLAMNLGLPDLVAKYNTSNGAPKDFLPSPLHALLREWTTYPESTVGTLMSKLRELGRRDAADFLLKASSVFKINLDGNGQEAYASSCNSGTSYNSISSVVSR

COc1cc(N(C)c2ccnc3ccc(C(F)(F)F)cc23)cc(OC)c1OC
% binding [1]: 81%

Nc1cnc(N2CCc3cc(S(=O)(=O)Nc4c(F)cc(Cl)cc4F)cc(N4CCCC4=O)c32)nc1 [TP-020n]
% of control [2]: 92%

COCC(=O)NC/C=C/c1ccc2ncnc(Nc3ccc(Oc4ccc(C)nc4)c(C)c3)c2c1 [CP-724714]
% of control [3]: 100%

CCC(=O)N1CCN(c2ccc(-n3c(=O)ccc4cnc5ccc(-c6cnc7ccccc7c6)cc5c43)cc2C(F)(F)F)CC1
% of control [4]: 86%

O[C@H]1CC[C@H](Nc2ncc3nc(Nc4c(F)cc(F)cc4F)n([C@H]4CCOC4)c3n2)CC1
% of control [5]: 70%

Cc1cc([C@@H](C)Nc2ccccc2C(=O)O)c2nc(N3CCOCC3)cc(=O)n2c1 [AZD-6482]
% of control [6]: 95%

N#Cc1cccc(-c2c[nH]c3ncnc(N4CCOCC4)c23)c1
% of inhibition [7]: 5%
